Bridge positions count the residues as written; N and C are the ends. Square brackets hold non-standard residues; d marks the D form. Peptide text beside a SMILES is read from it. * marks the point of attachment. ξ: configuration not given here. Phe(4-COOH) = N[C@@H](Cc1ccc(C(=O)O)cc1)C(=O)O; Bip = N[C@@H](Cc1ccc(-c2ccccc2)cc1)C(=O)O; Phe(3-Me) = Cc1cccc(C[C@H](N)C(=O)O)c1; Cha = N[C@@H](CC1CCCCC1)C(=O)O; Cit = NC(=O)NCCC[C@H](N)C(=O)O; Thr(3ξ) = CC(O)[C@H](N)C(=O)O; Dap(Me) = CNC[C@H](N)C(=O)O; Carboxymethyl = O=C(O)C*; Orn = NCCC[C@H](N)C(=O)O; Aun = NCCCCCCCCCCC(=O)O; Dab = NCC[C@H](N)C(=O)O; AEEA = NCCOCCOCC(=O)O
Biological target: T1, PD-1/PD-L1 interaction (PE-labeled human PD-L1-Ig binding to Jurkat cell line over-expressing human PD-1) (Homo sapiens, UniProt Q15116)
T1 construct: expressed in transfected cells; host or cells: Jurkat
T1 sequence (Q15116 25-288): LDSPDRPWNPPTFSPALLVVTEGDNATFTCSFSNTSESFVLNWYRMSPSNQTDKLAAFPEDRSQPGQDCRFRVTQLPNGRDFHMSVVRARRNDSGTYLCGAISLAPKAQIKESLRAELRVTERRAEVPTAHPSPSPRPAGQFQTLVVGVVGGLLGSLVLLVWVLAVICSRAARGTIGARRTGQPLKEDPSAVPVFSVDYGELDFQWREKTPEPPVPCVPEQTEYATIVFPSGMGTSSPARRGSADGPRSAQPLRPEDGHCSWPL
Assay: Jurkat-PD-1 Cell Binding High-Content Screening Assay (CBA)
Format: cell-based
Details: Jurkat cell line over-expressing human PD-1; PE-labeled PD-L1-Ig 20 nM final; read-out: Jurkat hPD1-PDL1 IC50
Summary of the method: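 First, compound is added to PD-1-expressing Jurkat cells in serum-containing DMEM and left 2 h at 37° C. Next, PE-conjugated PD-L1-Ig is introduced at 20 nM final concentration for 1 hour. Finally, cells are fixed in 4% paraformaldehyde with Hoechst 33342, washed and imaged.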

| Structure (SMILES) | IC50 [nM] |
| --- | --- |
| Cc1cccc(C[C@@H]2NC(=O)[C@H](CC(=O)O)NC(=O)[C@H](Cc3ccc(OCC(=O)O)cc3)NC(=O)[C@H](C(C)O)NC(=O)CSC[C@@H](C(=O)N[C@@H](CCN)C(=O)NCCCCCCCCCCC(=O)O)NC(=O)[C@H](C(C)O)NC(=O)[C@H](C(C)C)NC(=O)[C@H](CC3CCCCC3)NC(=O)[C@H](CCN)NC(=O)[C@@H](CC(C)C)NC(=O)[C@H](CCCNC(N)=O)NC(=O)[C@H](Cc3ccc(OCC(=O)O)cc3)NC(=O)[C@H](Cc3ccc(-c4ccccc4)cc3)NC(=O)[C@H](C(C)C)NC2=O)c1 (stereo partly drawn) [Compound 3451] ({CH2CO}-[Thr(3ξ)]Y(Carboxymethyl)D[Phe(3-Me)]V[Bip]Y(Carboxymethyl)[Cit][dL][Dab][Cha]V[Thr(3ξ)]C[Dab][Aun]-OH; thioether N-14) | 18.4 |
| Cc1cccc(C[C@@H]2NC(=O)[C@H](CC(=O)O)NC(=O)[C@H](Cc3ccc(OCC(=O)O)cc3)NC(=O)[C@H](CCCNC(=N)N)NC(=O)CSC[C@@H](C(=O)N[C@H](CC(N)=O)C(=O)NCCCCCCCCCCC(=O)O)NC(=O)[C@H](C(C)O)NC(=O)[C@H](C(C)C)NC(=O)[C@H](CC3CCCCC3)NC(=O)[C@H](CCN)NC(=O)[C@@H](CC(C)C)NC(=O)[C@H](CCCN)NC(=O)[C@H](Cc3ccc(O)cc3)NC(=O)[C@H](Cc3ccc(-c4ccccc4)cc3)NC(=O)[C@H](C(C)C)NC2=O)c1 (stereo partly drawn) [Compound 3452] ({CH2CO}-RY(Carboxymethyl)D[Phe(3-Me)]V[Bip]Y[Orn][dL][Dab][Cha]V[Thr(3ξ)]C[dN][Aun]-OH; thioether N-14) | 25.8 |
| Cc1cccc(C[C@@H]2NC(=O)[C@H](CC(=O)O)NC(=O)[C@H](Cc3ccc(OCC(=O)O)cc3)NC(=O)[C@H](C(C)O)NC(=O)CSC[C@@H](C(=O)N[C@@H](CCN)C(=O)NCCCCCCCCCCC(=O)O)NC(=O)[C@H](C(C)O)NC(=O)[C@H](C(C)C)NC(=O)[C@H](CC3CCCCC3)NC(=O)[C@H](CCN)NC(=O)[C@@H](CC(C)C)NC(=O)[C@H](CCCN)NC(=O)[C@H](Cc3ccc(O)cc3)NC(=O)[C@H](Cc3ccc(-c4ccccc4)cc3)NC(=O)[C@H](Cc3ccc(O)cc3)NC2=O)c1 (stereo partly drawn) [Compound 3456] ({CH2CO}-[Thr(3ξ)]Y(Carboxymethyl)D[Phe(3-Me)]Y[Bip]Y[Orn][dL][Dab][Cha]V[Thr(3ξ)]C[Dab][Aun]-OH; thioether N-14) | 26.4 |
| Cc1cccc(C[C@@H]2NC(=O)[C@H](CC(=O)O)NC(=O)[C@H](Cc3ccc(OCC(=O)O)cc3)NC(=O)[C@H](CCCNC(=N)N)NC(=O)CSC[C@@H](C(=O)N[C@@H](CCN)C(=O)NCCCCCCCCCCC(=O)O)NC(=O)[C@H](C(C)O)NC(=O)[C@H](C(C)C)NC(=O)[C@H](CC3CCCCC3)NC(=O)[C@H](CCN)NC(=O)[C@@H](CC(C)C)NC(=O)[C@H](CCCN)NC(=O)[C@H](Cc3ccc(O)cc3)NC(=O)[C@H](Cc3ccc(-c4ccccc4)cc3)NC(=O)[C@H](C(C)C)NC2=O)c1 (stereo partly drawn) [Compound 3457] ({CH2CO}-RY(Carboxymethyl)D[Phe(3-Me)]V[Bip]Y[Orn][dL][Dab][Cha]V[Thr(3ξ)]C[Dab][Aun]-OH; thioether N-14) | 37.4 |
| Cc1cccc(C[C@@H]2NC(=O)[C@H](CC(=O)O)NC(=O)[C@H](Cc3ccc(OCC(=O)O)cc3)NC(=O)[C@H](CCCNC(=N)N)NC(=O)CSC[C@@H](C(=O)NCCOCCOCC(=O)NCCCCCCCCCCC(=O)O)NC(=O)[C@H](C(C)O)NC(=O)[C@H](C(C)C)NC(=O)[C@H](CC3CCCCC3)NC(=O)[C@H](CCN)NC(=O)[C@@H](CC(C)C)NC(=O)[C@H](CCCN)NC(=O)[C@H](CCCNC(N)=O)NC(=O)[C@H](Cc3ccc(-c4ccccc4)cc3)NC(=O)[C@H](C(C)C)NC2=O)c1 (stereo partly drawn) [Compound 3459] ({CH2CO}-RY(Carboxymethyl)D[Phe(3-Me)]V[Bip][Cit][Orn][dL][Dab][Cha]V[Thr(3ξ)]C[AEEA][Aun]-OH; thioether N-14) | 14.2 |
| Cc1cccc(C[C@@H]2NC(=O)[C@H](CC(=O)O)NC(=O)[C@H](Cc3ccc(C(=O)O)cc3)NC(=O)[C@H](Cc3ccc(OCC(=O)O)cc3)NC(=O)CSC[C@@H](C(=O)N[C@@H](CCN)C(=O)NCCCCCCCCCCC(=O)O)NC(=O)[C@H](C(C)O)NC(=O)[C@H](C(C)C)NC(=O)[C@H](CC3CCCCC3)NC(=O)[C@H](CCN)NC(=O)[C@@H](CC(C)C)NC(=O)[C@H](CCCN)NC(=O)[C@H](CCCNC(N)=O)NC(=O)[C@H](Cc3ccc(-c4ccccc4)cc3)NC(=O)[C@H](CC(C)C)NC2=O)c1 (stereo partly drawn) [Compound 3463] ({CH2CO}-Y(Carboxymethyl)[Phe(4-COOH)]D[Phe(3-Me)]L[Bip][Cit][Orn][dL][Dab][Cha]V[Thr(3ξ)]C[Dab][Aun]-OH; thioether N-14) | 31.3 |
| CC(=O)NCCCC[C@@H]1NC(=O)[C@H](Cc2ccc(-c3ccccc3)cc2)NC(=O)[C@H](Cc2ccccc2)NC(=O)[C@H](Cc2cccc(C)c2)NC(=O)[C@H](CC(=O)O)NC(=O)[C@H](Cc2ccc(OCC(=O)O)cc2)NC(=O)[C@H](C(C)O)NC(=O)CSC[C@@H](C(=O)N[C@@H](CCN)C(=O)NCCCCCCCCCCC(=O)O)NC(=O)[C@H](C(C)O)NC(=O)[C@H](C(C)C)NC(=O)[C@H](CC2CCCCC2)NC(=O)[C@H](CCN)NC(=O)[C@@H](CC(C)C)NC(=O)[C@H](CCCNC(N)=O)NC1=O (stereo partly drawn) [Compound 3466] ({CH2CO}-[Thr(3ξ)]Y(Carboxymethyl)D[Phe(3-Me)]F[Bip]K(Ac)[Cit][dL][Dab][Cha]V[Thr(3ξ)]C[Dab][Aun]-OH; thioether N-14) | 19.5 |

Further lines, results first:

| IC50 [nM] | Structure (SMILES) |
| --- | --- |
| 19.9 | Cc1cccc(C[C@@H]2NC(=O)[C@H](CC(=O)O)NC(=O)[C@H](Cc3ccc(OCC(=O)O)cc3)NC(=O)[C@H](Cc3c[nH]cn3)NC(=O)CSC[C@@H](C(=O)N[C@@H](CCN)C(=O)NCCCCCCCCCCC(=O)O)NC(=O)[C@H](C(C)O)NC(=O)[C@H](C(C)C)NC(=O)[C@H](CC3CCCCC3)NC(=O)[C@H](CCN)NC(=O)[C@@H](CC(C)C)NC(=O)[C@H](CCCN)NC(=O)[C@H](CCCNC(N)=O)NC(=O)[C@H](Cc3ccc(-c4ccccc4)cc3)NC(=O)[C@H](C(C)C)NC2=O)c1 (stereo partly drawn) [Compound 3453] ({CH2CO}-HY(Carboxymethyl)D[Phe(3-Me)]V[Bip][Cit][Orn][dL][Dab][Cha]V[Thr(3ξ)]C[Dab][Aun]-OH; thioether N-14) |
| 16.2 | CNC[C@@H]1NC(=O)CSC[C@@H](C(=O)N[C@@H](CCN)C(=O)NCCCCCCCCCCC(=O)O)NC(=O)[C@H](C(C)O)NC(=O)[C@H](C(C)C)NC(=O)[C@H](CC2CCCCC2)NC(=O)[C@H](CCN)NC(=O)[C@@H](CC(C)C)NC(=O)[C@H](CCCN)NC(=O)[C@H](CCCNC(N)=O)NC(=O)[C@H](Cc2ccc(-c3ccccc3)cc2)NC(=O)[C@H](C(C)C)NC(=O)[C@H](Cc2cccc(C)c2)NC(=O)[C@H](CC(=O)O)NC(=O)[C@H](Cc2ccc(OCC(=O)O)cc2)NC1=O (stereo partly drawn) [Compound 3454] ({CH2CO}-[Dap(Me)]Y(Carboxymethyl)D[Phe(3-Me)]V[Bip][Cit][Orn][dL][Dab][Cha]V[Thr(3ξ)]C[Dab][Aun]-OH; thioether N-14) |
| 14.6 | Cc1cccc(C[C@@H]2NC(=O)[C@H](CC(=O)O)NC(=O)[C@H](Cc3ccc(OCC(=O)O)cc3)NC(=O)[C@H](CC(N)=O)NC(=O)CSC[C@@H](C(=O)N[C@@H](CCN)C(=O)NCCCCCCCCCCC(=O)O)NC(=O)[C@H](C(C)O)NC(=O)[C@H](C(C)C)NC(=O)[C@H](CC3CCCCC3)NC(=O)[C@H](CCN)NC(=O)[C@@H](CC(C)C)NC(=O)[C@H](CCCN)NC(=O)[C@H](CCCNC(N)=O)NC(=O)[C@H](Cc3ccc(-c4ccccc4)cc3)NC(=O)[C@H](C(C)C)NC2=O)c1 (stereo partly drawn) [Compound 3455] ({CH2CO}-NY(Carboxymethyl)D[Phe(3-Me)]V[Bip][Cit][Orn][dL][Dab][Cha]V[Thr(3ξ)]C[Dab][Aun]-OH; thioether N-14) |
| 18.4 | Cc1cccc(C[C@@H]2NC(=O)[C@H](CC(=O)O)NC(=O)[C@H](Cc3ccc(OCC(=O)O)cc3)NC(=O)[C@H](C(C)O)NC(=O)CSC[C@@H](C(=O)N[C@@H](CCN)C(=O)NCCCCCCCCCCC(=O)O)NC(=O)[C@H](C(C)O)NC(=O)[C@H](C(C)C)NC(=O)[C@H](CC3CCCCC3)NC(=O)[C@H](CCN)NC(=O)[C@@H](CC(C)C)NC(=O)[C@H](CCCN)NC(=O)[C@H](CCCNC(N)=O)NC(=O)[C@H](Cc3ccc(-c4ccccc4)cc3)NC(=O)[C@H](C(C)C)NC2=O)c1 (stereo partly drawn) [Compound 3458] ({CH2CO}-[Thr(3ξ)]Y(Carboxymethyl)D[Phe(3-Me)]V[Bip][Cit][Orn][dL][Dab][Cha]V[Thr(3ξ)]C[Dab][Aun]-OH; thioether N-14) |
| 17 | Cc1cccc(C[C@@H]2NC(=O)[C@H](CC(=O)O)NC(=O)[C@H](Cc3ccc(OCC(=O)O)cc3)NC(=O)[C@H](C(C)O)NC(=O)CSC[C@@H](C(=O)NCCOCCOCC(=O)NCCCCCCCCCCC(=O)O)NC(=O)[C@H](C(C)O)NC(=O)[C@H](C(C)C)NC(=O)[C@H](CC3CCCCC3)NC(=O)[C@H](CCN)NC(=O)[C@@H](CC(C)C)NC(=O)[C@H](CCCN)NC(=O)[C@H](CCCNC(N)=O)NC(=O)[C@H](Cc3ccc(-c4ccccc4)cc3)NC(=O)[C@H](C(C)C)NC2=O)c1 (stereo partly drawn) [Compound 3460] ({CH2CO}-[Thr(3ξ)]Y(Carboxymethyl)D[Phe(3-Me)]V[Bip][Cit][Orn][dL][Dab][Cha]V[Thr(3ξ)]C[AEEA][Aun]-OH; thioether N-14) |
| 33 | Cc1cccc(C[C@@H]2NC(=O)[C@H](CC(=O)O)NC(=O)[C@H](Cc3ccc(OCC(=O)O)cc3)NC(=O)[C@H](C(C)O)NC(=O)CSC[C@@H](C(=O)N[C@@H](CCCCN)C(=O)NCCCCCCCCCCC(=O)O)NC(=O)[C@H](C(C)O)NC(=O)[C@H](C(C)C)NC(=O)[C@H](CC3CCCCC3)NC(=O)[C@H](CCN)NC(=O)[C@@H](CC(C)C)NC(=O)[C@H](CCCN)NC(=O)[C@H](CCCNC(N)=O)NC(=O)[C@H](Cc3ccc(-c4ccccc4)cc3)NC(=O)[C@H](C(C)C)NC2=O)c1 (stereo partly drawn) [Compound 3467] ({CH2CO}-[Thr(3ξ)]Y(Carboxymethyl)D[Phe(3-Me)]V[Bip][Cit][Orn][dL][Dab][Cha]V[Thr(3ξ)]CK[Aun]-OH; thioether N-14) |
